Measurements reported in patent publication EP0477871A2, “Antiviral composition, containing guanine derivatives” (NIPPON KAYAKU KABUSHIKI KAISHA, priority 1990, dated 1992).
Read-outs that look alike come from different tables or passages of the source.

Key:
HSV-1 (VR-3) = assay: Plaque inhibition (growth inhibition) in vero cell monolayer, HSV-1; type: cell-based, herpes simplex virus 1 (HSV-1); settings: for IC50: Human alphaherpesvirus 1, Vero, compound alone, read-out: Concentraten at 50% plaque inhibition (IC50), single compound
Protocol: (§1) A monolayer culture of Cercopithecus sabaeus renal cells (vero cells) was prepared in Eagle's minimum medium containing 10% of newborn calf serum (MEM-CS10) by using a 24-well microplate. Then the medium was inoculated with 50 PFU/0.1 ml/well of herpes simplex virus 1 (HSV-1) or 2 (HSV-2). After effecting adsorption at 37°C for 1 hour, the cells in each well were washed with a phosphate buffer solution (PBS). Next, 0.5% methylcellulose-containing MEM-CS2 containing stepwise diluted OXT-G, ACV or C-OXT-G alone, a combination of OXT-G and ACV, a combination of OXT-G and C-OXT-G or a combination of ACV and C-OXT-G was laminated thereon and incubated at 37°C for 2 days. After discarding the laminated medium and fixing the cells with […], the cells were stained with a Crystal Purple solution and plaques formed in each well were counted. Then the ratio (%) of the plaque count at each concentration to that of the control lot, to which no chemical was added, was determined to thereby give the 50% plaque inhibition concentration (IC₅₀). Thus the inhibitory rate (%) against the concentration of each compound was calculated.

HSV-2 (VW-268) = assay: Plaque inhibition (growth inhibition) in vero cell monolayer, HSV-2; type: cell-based, herpes simplex virus 2 (HSV-2); settings: for IC50: Human alphaherpesvirus 2, Vero, compound alone, read-out: Concentraten at 50% plaque inhibition (IC50), single compound
Protocol: as §1

Nc1nc2c(ncn2[C@@H]2C[C@H](CO)[C@H]2CO)c(=O)[nH]1 [C-OXT-G, (+)-9-[(1R,2R,3S)-2,3-bis(hydroxymethyl)cyclobutyl]guanine]
C-OXT-G inhibitory rate (single compound at the same concn., theoretical) (HSV-1 (VR-3); C-OXT-G alone 0.01 μg/mℓ): (2%) | C-OXT-G inhibitory rate (single compound at the same concn., theoretical) (HSV-1 (VR-3); C-OXT-G alone 0.04 μg/mℓ): (3%) | C-OXT-G inhibitory rate (single compound at the same concn., theoretical) (HSV-1 (VR-3); C-OXT-G alone 0.1 μg/mℓ): (8%) | C-OXT-G inhibitory rate (single compound at the same concn., theoretical) (HSV-1 (VR-3); C-OXT-G alone 0.2 μg/mℓ): (33%) | C-OXT-G inhibitory rate (HSV-1 (VR-3); C-OXT-G alone 0.3 μg/mℓ): 50% | C-OXT-G inhibitory rate (single compound at the same concn., theoretical) (HSV-1 (VR-3); C-OXT-G alone 0.4 μg/mℓ): (33.3%) | C-OXT-G inhibitory rate (HSV-1 (VR-3); C-OXT-G alone 0.60 μg/mℓ): 50% | IC50 (HSV-1 (VR-3); C-OXT-G/ACV series): 0.3 µg/mL | IC50 (HSV-1 (VR-3); OXT-G/C-OXT-G series): 0.6 µg/mL | C-OXT-G inhibitory rate (single compound at the same concn., theoretical) (HSV-2 (VW-268); C-OXT-G alone 0.04 μg/mℓ): (3%) | C-OXT-G inhibitory rate (single compound at the same concn., theoretical) (HSV-2 (VW-268); C-OXT-G alone 0.1 μg/mℓ): (7%) | C-OXT-G inhibitory rate (single compound at the same concn., theoretical) (HSV-2 (VW-268); C-OXT-G alone 0.3 μg/mℓ): (20%) | C-OXT-G inhibitory rate (single compound at the same concn., theoretical) (HSV-2 (VW-268); C-OXT-G alone 0.54 μg/mℓ): (36%) | C-OXT-G inhibitory rate (HSV-2 (VW-268); C-OXT-G alone 0.74 μg/mℓ): 50% | IC50 (HSV-2 (VW-268); C-OXT-G/ACV series): 0.74 µg/mL

Nc1nc2c(ncn2COCCO)c(=O)[nH]1 [ACV, 9-(2-hydroxyethoxymethyl)guanine, reference compound]
ACV inhibitory rate (single compound at the same concn., theoretical) (HSV-1 (VR-3); ACV alone 0.04 μg/mℓ): (2%) | ACV inhibitory rate (single compound at the same concn., theoretical) (HSV-1 (VR-3); ACV alone 0.08 μg/mℓ): (3%) | ACV inhibitin rate (single compound at the same concn., theoretical) (HSV-1 (VR-3); ACV alone 0.1 μg/mℓ): (6%) | ACV inhibitory rate (single compound at the same concn., theoretical) (HSV-1 (VR-3); ACV alone 0.32 μg/mℓ): (12%) | ACV inhibitory rate (single compound at the same concn., theoretical) (HSV-1 (VR-3); ACV alone 0.42 μg/mℓ): (15%) | ACV inhibitin rate (single compound at the same concn., theoretical) (HSV-1 (VR-3); ACV alone 0.58 μg/mℓ): (37%) | ACV inhibitin rate (HSV-1 (VR-3); ACV alone 0.78 μg/mℓ): 50% | ACV inhibitory rate (HSV-1 (VR-3); ACV alone 1.4 μg/mℓ): 50% | IC50 (HSV-1 (VR-3); C-OXT-G/ACV series): 0.78 µg/mL | IC50 (HSV-1 (VR-3); OXT-G/ACV series): 1.4 µg/mL | ACV inhibitory rate (single compound at the same concn., theoretical) (HSV-2 (VW-268); ACV alone 0.1 μg/mℓ): (2%) | ACV inhibitory rate (single compound at the same concn., theoretical) (HSV-2 (VW-268); ACV alone 0.4 μg/mℓ): (8%) | ACV inhibitory rate (single compound at the same concn., theoretical) (HSV-2 (VW-268); ACV alone 1.3 μg/mℓ): (19%) | ACV inhibitory rate (single compound at the same concn., theoretical) (HSV-2 (VW-268); ACV alone 1.5 μg/mℓ): (30%) | ACV inhibitory rate (single compound at the same concn., theoretical) (HSV-2 (VW-268); ACV alone 1.8 μg/mℓ): (36%) | ACV inhibitory rate (single compound at the same concn., theoretical) (HSV-2 (VW-268); ACV alone 1.9 μg/mℓ): (28%) | ACV inhibitory rate (HSV-2 (VW-268); ACV alone 2.5 μg/mℓ): 50% | ACV inhibitory rate (single compound at the same concn., theoretical) (HSV-2 (VW-268); ACV alone 2.7 μg/mℓ): (40%) | ACV inhibitory rate (HSV-2 (VW-268); ACV alone 3.4 μg/mℓ): 50% | IC50 (HSV-2 (VW-268); C-OXT-G/ACV series): 2.5 µg/mL | IC50 (HSV-2 (VW-268); OXT-G/ACV series): 3.4 µg/mL

Nc1nc2c(ncn2[C@@H]2O[C@H](CO)[C@H]2CO)c(=O)[nH]1 [OXT-G, 9-(2-deoxy-2-hydroxymethyl-β-D-erythrooxetanosyl)guanine]
IC50 (HSV-1 (VR-3); OXT-G/ACV series): 7 µg/mL | IC50 (HSV-1 (VR-3); OXT-G/C-OXT-G series): 7.3 µg/mL | OXT-G inhibitory rate (single compound at the same concn., theoretical) (HSV-1 (VR-3); OXT-G alone 0.1 μg/mℓ): (1%) | OXT-G inhibitory rate (single compound at the same concn., theoretical) (HSV-1 (VR-3); OXT-G alone 0.4 μg/mℓ): (3%) | OXT-G inhibitory rate (single compound at the same concn., theoretical) (HSV-1 (VR-3); OXT-G alone 1.0 μg/mℓ): (7%) | OXT-G inhibitory rate (single compound at the same concn., theoretical) (HSV-1 (VR-3); OXT-G alone 1.7 μg/mℓ): (12%) | OXT-G inhibitory rate (single compound at the same concn., theoretical) (HSV-1 (VR-3); OXT-G alone 3.0 μg/mℓ): (26%) | OXT-G inhibitory rate (single compound at the same concn., theoretical) (HSV-1 (VR-3); OXT-G alone 4.0 μg/mℓ): (29%) | OXT-G inhibitory rate (single compound at the same concn., theoretical) (HSV-1 (VR-3); OXT-G alone 5.4 μg/mℓ): (39%) | OXT-G inhibitory rate (HSV-1 (VR-3); OXT-G alone 7.0 μg/mℓ): 50% | OXT-G inhibitory rate (HSV-1 (VR-3); OXT-G alone 7.3 μg/mℓ): 50% | IC50 (HSV-2 (VW-268); OXT-G/ACV series): 10 µg/mL | OXT-G inhibitory rate (single compound at the same concn., theoretical) (HSV-2 (VW-268); OXT-G alone 0.4 μg/mℓ): (2%) | OXT-G inhibitory rate (single compound at the same concn., theoretical) (HSV-2 (VW-268); OXT-G alone 1.0 μg/mℓ): (5%) | OXT-G inhibitory rate (single compound at the same concn., theoretical) (HSV-2 (VW-268); OXT-G alone 4.0 μg/mℓ): (20%) | OXT-G inhibitory rate (HSV-2 (VW-268); OXT-G alone 10.0 μg/mℓ): (50%)
